We go through one compound from patent US20080044455A1, “Tonsillitus Treatment” (priority 2006, published 2008).

This assay has as its system tonsils, throat and back of the mouth. The assay is described as follows: topical application of lactic acid (diluted in a liquid carrier such as juice) to tonsils, throat and back of the mouth. The assay is classed as in vivo, human. As to the method:
In one aspect, a mixture of 10% by volume of pharmaceutical lactic acid is mixed with 90% by volume liquid carrier, such as juice, and the mixture is ingested 3 times a day for a month at a dosage of one teaspoon (approximately 0.005 liters) per application. After a two week pause, the patient is evaluated for the reduction in size of the tonsils. […] The number of applications per day can be reduced to two times a day, in the event that it is hard to implement with the patient, thus extending the duration of the treatment by 10 days.
In one aspect, the mixture or solution is ingested, such as by repeatedly drinking, as at step 50, over a period of time such as a week, to topically apply the mixture or solution constituents to the surfaces of the tonsils, throat and/or mouth, at least twice, with a duration of time between the two applications.

Consider `CC(O)C(=O)O` (stereo not drawn) [lactic acid, Lactic Acid], for which, for the setting “topical application to tonsils, throat and mouth”, the “size of the tonsils” value is recorded as “reduction of the size of the tonsils”. Further, the “recurrence of the inflammation and infection causing the inflammation” value (topical application, lactic acid diluted in a liquid carrier such as a juice) is “reduction in the recurrence of the inflammation and infection”. Besides, the “inflammation and pain in the treated areas” value (topical application, lactic acid diluted in a liquid carrier such as a juice, drunk or otherwise applied) is “reduction of both inflammation and pain in the treated areas”.
